Reference: BindingDB's records for doi:10.7270/Q2MP51PC (Pcmd, 2008)

Target: T1, Complement C1s subcomponent (Homo sapiens, UniProt P09871)
T1 sequence (P09871 whole entry): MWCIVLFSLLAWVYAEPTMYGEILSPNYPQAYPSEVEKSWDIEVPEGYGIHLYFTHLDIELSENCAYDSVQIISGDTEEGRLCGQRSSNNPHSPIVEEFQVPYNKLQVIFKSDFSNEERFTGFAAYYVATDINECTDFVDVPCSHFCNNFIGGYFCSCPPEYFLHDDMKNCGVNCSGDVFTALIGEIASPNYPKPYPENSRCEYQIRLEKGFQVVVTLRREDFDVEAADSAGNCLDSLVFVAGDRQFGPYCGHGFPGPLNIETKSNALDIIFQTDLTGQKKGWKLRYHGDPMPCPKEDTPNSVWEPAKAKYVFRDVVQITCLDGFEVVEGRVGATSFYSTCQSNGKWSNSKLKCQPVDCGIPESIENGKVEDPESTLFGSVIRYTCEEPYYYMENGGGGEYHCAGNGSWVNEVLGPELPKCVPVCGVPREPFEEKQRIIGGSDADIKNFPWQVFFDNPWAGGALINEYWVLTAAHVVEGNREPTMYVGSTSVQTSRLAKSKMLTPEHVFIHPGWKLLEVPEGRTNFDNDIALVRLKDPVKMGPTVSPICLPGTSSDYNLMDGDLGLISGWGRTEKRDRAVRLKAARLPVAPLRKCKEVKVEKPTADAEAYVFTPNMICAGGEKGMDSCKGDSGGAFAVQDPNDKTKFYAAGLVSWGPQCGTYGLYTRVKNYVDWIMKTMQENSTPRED
Experiment: C1s inhibitor IC50 values, dose response, biochemical (AID 787)

| SMILES | IC50 [µM] |
| --- | --- |
| COc1ccc(Cl)cc1NC(=O)CCN1CCN(c2ccccc2C)CC1 [MLS000075926] | > 50 |
| O=C(Nc1cc(Cl)ccc1N1CCOCC1)c1cnccn1 [MLS000076142] | > 50 |
| COc1cccc(NC(=O)CCP(C)(=O)O)c1 [MLS000079835] | > 50 |
| CCC(=O)Nc1ccc(C(=O)Nc2ccc3c(c2)OCO3)cc1 [MLS000085289] | > 50 |
| CC1(C)COCN1S(=O)(=O)c1ccc(C(=O)Nc2nnc(-c3ccc(Cl)s3)o2)cc1 [MLS000086346] | > 50 |
| O=C(NCCc1ccccc1)c1noc2c1CCc1ccccc1-2 [MLS000087424] | 14 |
| CCCN(c1nc(C)cc(OC)n1)S(=O)(=O)c1ccccc1 [MLS000087928] | > 50 |
| COc1ccc(S(=O)(=O)N2CCOCC2)cc1C(=O)Nc1nc2ccccc2s1 [MLS000088961] | > 50 |
| Cc1cc(=O)[nH]c(SCC(=O)c2ccc(C(C)C)cc2)n1 [MLS000089861] | > 50 |
| CCC(=O)Nc1cccc(-c2nc3ccccc3c(=O)o2)c1 [MLS000090237] | 34.7 |
| CCc1ccccc1N(C(=O)c1cccs1)C1C=CS(=O)(=O)C1 (stereo not given) [MLS000093437] | > 50 |
| CCCCC(=O)Nc1ccc(NC(=O)c2ccc3c(c2)OCO3)cc1OC [MLS000097195] | > 50 |
| CCc1cc(=O)oc2cc(C)cc(OC(=O)c3ccco3)c12 [MLS000099547] | 10.1 |
| COc1cc(C)nc(NS(=O)(=O)c2ccccc2)n1 [MLS000100375] | > 50 |
| CC(=O)Nc1ccc(NC(C)=O)s1 [MLS000105054] | > 50 |
| O=C1CCCC(=O)C1=CNCCc1ccccc1 [MLS000108318] | > 50 |
| Cc1csc(NC(=O)c2ccco2)n1 [MLS000108918] | > 50 |
| COc1ccccc1CNC(=O)C1COc2ccccc2O1 (stereo not given) [MLS000110123] | > 50 |
| CCCCN1C(=O)/C(=C2\SC(N3CCCCC3)=NC2=O)c2ccccc21 [MLS000111979] | > 50 |
| CC1CCCN(C(C(=O)Nc2ccc3c(c2)OCO3)c2ccccc2)C1 (stereo not given) [MLS000116117] | > 50 |

| SMILES | IC50 [µM] |
| --- | --- |
| CN(CCNC(=O)Cn1c(=O)sc2ccccc21)Cc1ccccc1 [MLS000116175] | > 50 |
| COc1ccc2c(c1)CCc1c(C(=O)NCc3ccc(F)cc3)noc1-2 [MLS000116425] | > 50 |
| Cc1nc(C)c(C(=O)Nc2cccc(C)c2C)o1 [MLS000118537] | > 50 |
| Cn1c(Cn2c(=O)sc3ccccc32)nnc1SCC(=O)NCc1ccccc1Cl [MLS000118585] | > 50 |
| Cc1ccc(CCN2C(=O)CCC2(C)C(=O)NC2CCCC2)cc1 (stereo not given) [MLS000120119] | > 50 |
| COc1ccccc1S(=O)(=O)Cc1ccc(C(=O)NCCN(C)C)o1 [MLS000120198] | > 50 |
| COc1ccc2cc(CCNC(=O)C(C)C)c(=O)[nH]c2c1 [N-[2-(7-methoxy-2-oxo-1H-quinolin-3-yl)ethyl]-2-methylpropanamide] | > 50 |
| CCCC(=O)Nc1ccc(C(=O)n2nnc3ccccc32)cc1 [N-[4-(1H-1,2,3-benzotriazol-1-ylcarbonyl)phenyl]butanamide] | 0.38 |
| Cc1ccc(-c2noc(CN(C(=O)C34CC5CC(CC(C5)C3)C4)C(C)C)n2)cc1 [N-[[3-(4-methylphenyl)-1,2,4-oxadiazol-5-yl]methyl]-N-propan-2-yl-1-adamantanecarboxamide] | > 50 |
| CCCCn1c(=O)cc(N2CCOCC2)[nH]c1=O [SMR000018178] | > 50 |
| COc1ccc(NC(=O)c2[nH]cnc2C(=O)Nc2ccccc2C)cc1 [SMR000020470] | > 50 |
| CCc1nn(C(C)C(=O)NCCN2CCN(c3cccc(C)c3C)CC2)c(=O)c2cc3occc3n12 (stereo not given) [SMR000029605] | > 50 |
| COc1ccccc1/N=C/c1nc(-c2ccccc2)oc1OC(C)=O [SMR000039734] | > 50 |
| COc1ccc(NC(=O)CSC2=NC3=C(C(=O)CCC3)C(c3ccco3)C2C#N)c(OC)c1 (stereo not given) [SMR000042323] | > 50 |
| CCOc1ccc2[nH]c3c(N4CCN(c5ccccn5)CC4)ncnc3c2c1 [SMR000044529] | > 50 |
| Cc1nn(C(=O)c2ccccc2)c2c1C(=O)CC(C)(C)C2 [SMR000069174] | 5.35 |
| CC(=O)c1c(OC(=O)c2ccco2)c2ccccc2n1C [SMR000109417] | 25.9 |
| Cc1cc(OC(=O)c2ccccc2)n(CCC#N)n1 [[2-(2-cyanoethyl)-5-methyl-pyrazol-3-yl] benzoate] | 2.14 |
| CSc1nc(-c2ccco2)nn1C(=O)c1ccc(C)cc1 [[3-(furan-2-yl)-5-methylsulfanyl-1,2,4-triazol-1-yl]-(4-methylphenyl)methanone] | 0.9 |
| CSc1nc(-c2ccco2)nn1C(=O)c1cccs1 [[3-(furan-2-yl)-5-methylsulfanyl-1,2,4-triazol-1-yl]-thiophen-2-ylmethanone] | 0.88 |
